Measured values as given in patent US20190209548A1, “LINKED DIARYL COMPOUNDS WITH ANTICANCER PROPERTIES AND METHODS OF USING THE SAME” (University of Maryland, College Park, priority 2014, published 2019).
Read-outs that look alike come from different tables or passages of the source.

What was measured:
F21T = assay: FRET melting assay, F21T; type: binding; settings: dual-labeled DNA 0.2 μM, DMZ analogues 1 μM, potassium cacodylate 60 mM pH 7.2
Protocol: (§1) Fluorescence resonance energy transfer (FRET) assay to determine Tm in absence and presence of ligands. Dual-labelled DNA was diluted from stock (50 μM) to 400 nM in 60 mM potassium cacodylate buffer (pH 7.2) and then annealed by heating at 85° C. for 10 min followed by cooling to room temperature in the heating block. Compounds were diluted from stock (20 mM in DMSO) to 2 μM in 60 mM cacodylate buffer (pH 7.2). 25 μL annealed DNA was added to 96-well plate followed by 25 μL diluted compounds. The sequences of labelled oligonucleotides were as follows: F21T 21-mer (5′-FAM-GGGTTAGGGTTAGGGTTAGGG-TAMRA-3′) (SEQ ID NO:11), c-kit2 26-mer (5′-FAM-CCCGGGCGGGCGCGAGGGAGGGGAGG-TAMRA-3′) (SEQ ID NO:12), k-RAS21R 21-mer (5′-FAM-AGGGCGGTGTGGGAAGAGGGA-TAMRA-3′) (SEQ ID NO:13), c-MYC 22-mer (5′-FAM-TGAGGGTGGGTAGGGTGGGTAA-TAMRA-3′) (SEQ ID NO:14) and duplex 26-mer (5′-FAM-TATAGCTATATTTTTTTATAGCTATA-TAMRA-3′) (SEQ ID NO: 15). Measurements were made in triplicate by using a LightCycler 480 System RT-PCR machine (Roche) and average values were reported. Fluorescence readings were made with excitation at 450-495 nm and detection at 515-545 nm, taken at intervals of 1.2° C./min in the range 25° C. to 95° C.

c-MYC = assay: FRET melting assay, c-MYC; type: binding; settings: dual-labeled DNA 0.2 μM, DMZ analogues 1 μM, potassium cacodylate 60 mM pH 7.2
Protocol: as §1

c-kit2 = assay: FRET melting assay, c-kit2; type: binding; settings: dual-labeled DNA 0.2 μM, DMZ analogues 1 μM, potassium cacodylate 60 mM pH 7.2
Protocol: as §1

k-RAS21R = assay: FRET melting assay, k-RAS21R; type: binding; settings: dual-labeled DNA 0.2 μM, DMZ analogues 1 μM, potassium cacodylate 60 mM pH 7.2
Protocol: as §1

duplex = assay: FRET melting assay, duplex DNA; type: binding; settings: dual-labeled DNA 0.2 μM, DMZ analogues 1 μM, potassium cacodylate 60 mM pH 7.2
Protocol: as §1

OVCAR-3 = assay: WST-1 IC50 determination, OVCAR-3; type: cell-based, human; settings: 72 hours, WST-1; for IC50: read-out: Anticancer activity IC50 ± SD, OVCAR-3
Protocol: (§2) Cell lines and culturing. The following human cell lines were purchased from ATCC (ATCC, Manassas, Va.): prostate cancer cells (PC-3), triple negative breast cancer cells (MDA-MB-231), ovarian cancer cells (OVCAR-3), normal bone marrow (NBM) and normal fibroblast cells (MCR5A). MDA-MB-231 cells were grown at 37° C. with 5% CO2 atmosphere with DMEM (Life technologies, Carlsbad, Calif.) supplemented with heat-inactivated 10% (V/V) fetal bovine serum. OVCAR-3 and PC-3 cells were grown at 37° C. with 5% CO2 atmosphere with RPMI (Life technologies, Carlsbad, Calif.) supplemented with heat-inactivated 10% (V/V) fetal bovine serum. Cell lines were grown and maintained according to ATCC recommendations.
(§3) IC50 determination. Cell lines were seeded into 96-well plates the afternoon prior to treatment. Cell seeding number was determined by growing cells in log phase growth during drug treatment. Approximately 18 hours later, compounds were semi-serially diluted in dimethyl sulfoxide (DMSO) and then growth medium, and added to cells. Plates were incubated for 72 hours prior to addition of WST-1 (Promega, Madison Wis.). Plates were read after 4 additional hours of incubation at 37° C. using a Bio-Tek Synergy HT plate reader (Bio-Tek, Winooski, Vt.). Data was analyzed, graphed and IC50s generated using GraphPad Prism Software (Graphpad, La Jolla, Calif.).
(§4) IC50 determination: For the determination of IC50 for the azolamide class, the same protocol as described previously was followed.

PC-3 = assay: WST-1 IC50 determination, PC-3; type: cell-based, human; settings: 72 hours, WST-1; for IC50: read-out: Anticancer activity IC50 ± SD, PC-3
Protocol: as §2, §3, §4

MDA-MB-231 = assay: WST-1 IC50 determination, MDA-MB-231; type: cell-based, human; settings: 72 hours, WST-1; for IC50: read-out: Anticancer activity IC50 ± SD, MDA-MB-231
Protocol: as §2, §3, §4

[1] = Human liver microsome stability; type: in vitro ADME
From the text: An established method to determine the pharmacokinetic clearance of a compound in humans is to measure the degradation of the compound in the presence of human liver microsomes. The following is the half-lives of the four compounds in human liver microsomes: […]

Row | Structure (SMILES) | ΔTm F21T (F21T) [°C] | ΔTm c-MYC (c-MYC) [°C] | ΔTm c-kit2 (c-kit2) [°C] | ΔTm k-RAS21R (k-RAS21R) [°C] | ΔTm duplex (duplex) | IC50 (OVCAR-3) [µM] | IC50 (PC-3) [µM] | IC50 (MDA-MB-231) [µM] | Anticancer activity IC50 ± SD, OVCAR-3 (OVCAR-3) | Anticancer activity IC50 ± SD, PC-3 (PC-3) | Anticancer activity IC50 ± SD, MDA-MB-231 (MDA-MB-231) | NADPH-independent T½ ([1]; human liver microsomes) [h] | half-life ([1]; human liver microsomes, read-out: NADPH-dependent T½) [h] | half-life ([1]; human, liver microsomes, read-out: NADPH-dependent T½) [h] | half-life ([1]; human, liver microsomes, read-out: NADPH-independent T½) [h]
1 | N=C(N)c1ccc(N=NNc2cccc(C#Cc3ccccn3)c2)cc1 [DMZ8] | 4.75 ± 0.00 | 9.32 ± 0.00 | 8.04 ± 0.26 | 14.62 ± 0.45 | NE (NE means not effective binding (ΔTm < 1° C.)) | 10.7 ± 1.5 | 10.4 ± 1.4 | 14.4 ± 0.9 |  |  |  |  |  |  | 
2 | COc1ccc(C#Cc2cccc(NN=Nc3ccc(C(=N)N)cc3)c2)cc1 [DMZ10] | 4.39 ± 0.26 | 8.06 ± 0.26 | 5.48 ± 0.00 | 1.65 ± 0.26 | NE (NE means not effective binding (ΔTm < 1° C.)) | 5.2 ± 0.4 | 5 ± 0.9 | 5.5 |  |  |  |  |  |  | 
3 | C#Cc1ccccc1NN=Nc1ccc(C(=N)N)cc1 [DMZ11] | 4.20 ± 0.00 | 8.77 ± 0.00 | 7.68 ± 0.00 | 2.19 ± 0.26 | NE (NE means not effective binding (ΔTm < 1° C.)) | > 25 | > 50 | 23.2 |  |  |  |  |  |  | 
4 | N=C(N)c1ccc(N=NNc2ccccc2C#Cc2ccccc2)cc1 [DMZ12] | 4.20 ± 0.00 | 7.15 ± 0.00 | 5.12 ± 0.26 | 2.19 ± 0.26 | NE (NE means not effective binding (ΔTm < 1° C.)) | 8.1 ± 0.5 | 5.3 ± 0.2 | 5.1 ± 0.4 |  |  |  |  |  |  | 
5 | N=C(N)c1ccc(N=NNc2ccncc2)cc1 [DMZ14] | 4.20 ± 0.00 | 6.97 ± 0.26 | 6.58 ± 0.78 | 2.19 ± 0.26 | NE (NE means not effective binding (ΔTm < 1° C.)) |  |  |  | NE (NE means not effective. Cell viability was the same or greater than 75% of the DMSO control at 20 μM compound concentration.) | NE (NE means not effective. Cell viability was the same or greater than 75% of the DMSO control at 20 μM compound concentration.) | NE (NE means not effective. Cell viability was the same or greater than 75% of the DMSO control at 20 μM compound concentration.) |  |  |  | 
6 | CC(C)NC(=N)c1ccc(/N=N/c2c(N)ncc3ccc(Br)cc23)cc1 [HSY430-5] |  |  |  |  |  |  |  |  |  |  |  | >4 | > 4 |  | 
7 | CCCCNC(=N)c1ccc(/N=N/c2c(N)ncc3ccc(Br)cc23)cc1 [HSY430-6] |  |  |  |  |  |  |  |  |  |  |  |  |  | 2.57 | 2.38
8 | Nc1cccc(C#Cc2ccc(F)cc2)c1 [compound 15, reference compound] |  |  |  |  |  |  |  |  | NE (NE means not effective. Cell viability was the same or greater than 75% of the DMSO control at 20 μM compound concentration.) | NE (NE means not effective. Cell viability was the same or greater than 75% of the DMSO control at 20 μM compound concentration.) | NE (NE means not effective. Cell viability was the same or greater than 75% of the DMSO control at 20 μM compound concentration.) |  |  |  | 
